Experimental data published in the NIST ThermoML archive (doi:10.1016/j.jct.2005.01.017).

Test: xn = mol fraction of the nth substance listed
Conditions: 101 kPa, Liquid

CC1COC(=O)O1 (configuration not stated) [4-methyl-1,3-dioxolan-2-one] + Cc1cccc(C)c1
Conditions	mass density [kg/m3]
293.15 K, x2 = 0	1200.25
293.15 K, x2 = 0.0576	1173.76
293.15 K, x2 = 0.1263	1143.64
293.15 K, x2 = 0.1735	1123.83
293.15 K, x2 = 0.2267	1102.36
293.15 K, x2 = 0.2867	1079.14
293.15 K, x2 = 0.3548	1054
293.15 K, x2 = 0.4243	1029.6
293.15 K, x2 = 0.4671	1015.15
293.15 K, x2 = 0.5341	993.4
293.15 K, x2 = 0.5811	978.7
293.15 K, x2 = 0.6532	957.01
293.15 K, x2 = 0.7213	937.38
293.15 K, x2 = 0.7831	920.23
293.15 K, x2 = 0.8421	904.39
293.15 K, x2 = 0.9212	883.89
303.15 K, x2 = 0	1180.56
303.15 K, x2 = 0.0476	1159.4
303.15 K, x2 = 0.1178	1129.53
303.15 K, x2 = 0.1822	1103.48
303.15 K, x2 = 0.2248	1086.93
303.15 K, x2 = 0.2978	1059.75
303.15 K, x2 = 0.3681	1034.91
303.15 K, x2 = 0.4348	1012.48
303.15 K, x2 = 0.5038	990.33
303.15 K, x2 = 0.5598	973.11
303.15 K, x2 = 0.6139	957.05
303.15 K, x2 = 0.6738	939.89
303.15 K, x2 = 0.7355	922.85
303.15 K, x2 = 0.8021	905.11
303.15 K, x2 = 0.8837	884.19
303.15 K, x2 = 0.9475	868.42
313.15 K, x2 = 0	1161.28
313.15 K, x2 = 0.0564	1137.19
313.15 K, x2 = 0.1291	1107.58
313.15 K, x2 = 0.1781	1088.5
313.15 K, x2 = 0.2378	1066.16
313.15 K, x2 = 0.3021	1043.18
313.15 K, x2 = 0.3614	1022.91
313.15 K, x2 = 0.4243	1002.32
313.15 K, x2 = 0.4861	982.96
313.15 K, x2 = 0.5349	968.22
313.15 K, x2 = 0.5924	951.44
313.15 K, x2 = 0.6521	934.66
313.15 K, x2 = 0.7134	918.04
313.15 K, x2 = 0.7634	904.91
313.15 K, x2 = 0.8325	887.34
313.15 K, x2 = 0.9334	862.75
323.15 K, x2 = 0	1142.43
323.15 K, x2 = 0.0525	1120.74
323.15 K, x2 = 0.1203	1093.93
323.15 K, x2 = 0.1832	1070.24
323.15 K, x2 = 0.2498	1046.31
323.15 K, x2 = 0.3103	1025.54
323.15 K, x2 = 0.3667	1006.98
323.15 K, x2 = 0.4327	986.16
323.15 K, x2 = 0.4962	967.01
323.15 K, x2 = 0.5587	948.93
323.15 K, x2 = 0.6148	933.3
323.15 K, x2 = 0.6813	915.46
323.15 K, x2 = 0.7539	896.75
323.15 K, x2 = 0.8013	884.94
323.15 K, x2 = 0.8625	870.1
323.15 K, x2 = 0.9346	853.17
333.15 K, x2 = 0	1123.99
333.15 K, x2 = 0.0478	1104.87
333.15 K, x2 = 0.1249	1075.39
333.15 K, x2 = 0.1942	1050.25
333.15 K, x2 = 0.2571	1028.52
333.15 K, x2 = 0.3245	1006.29
333.15 K, x2 = 0.3878	986.36
333.15 K, x2 = 0.4313	973.16
333.15 K, x2 = 0.5138	949.16
333.15 K, x2 = 0.582	930.28
333.15 K, x2 = 0.6842	903.43
333.15 K, x2 = 0.7323	891.34
333.15 K, x2 = 0.7723	881.53
333.15 K, x2 = 0.8248	868.96
333.15 K, x2 = 0.8833	855.34
333.15 K, x2 = 0.9429	841.84
343.15 K, x2 = 0	1105.98
343.15 K, x2 = 0.0634	1081.55
343.15 K, x2 = 0.1278	1057.84
343.15 K, x2 = 0.1798	1039.5
343.15 K, x2 = 0.2348	1020.82
343.15 K, x2 = 0.3013	999.21
343.15 K, x2 = 0.3703	977.83
343.15 K, x2 = 0.4259	961.33
343.15 K, x2 = 0.4829	945.05
343.15 K, x2 = 0.5329	931.26
343.15 K, x2 = 0.5928	915.31
343.15 K, x2 = 0.6528	899.92
343.15 K, x2 = 0.7132	884.96
343.15 K, x2 = 0.7829	868.32
343.15 K, x2 = 0.8532	852.13
343.15 K, x2 = 0.9253	836.07
353.15 K, x2 = 0	1088.38
353.15 K, x2 = 0.0622	1065.11
353.15 K, x2 = 0.1199	1044.44
353.15 K, x2 = 0.1874	1021.32
353.15 K, x2 = 0.2401	1004.03
353.15 K, x2 = 0.3149	980.58
353.15 K, x2 = 0.3871	959.07
353.15 K, x2 = 0.451	940.91
353.15 K, x2 = 0.5249	920.84
353.15 K, x2 = 0.5832	905.67
353.15 K, x2 = 0.6591	886.72
353.15 K, x2 = 0.7249	870.97
353.15 K, x2 = 0.7719	860.05
353.15 K, x2 = 0.8529	841.86
353.15 K, x2 = 0.8941	832.88
353.15 K, x2 = 0.9483	821.31
